For 33 compounds, MIC and Activity results are on record in ChEMBL document CHEMBL3045726, “Fungicidal Activity of Pyrazolylpyrimidines” (1990).

Values after ≈ are worked out from the molar mass of the structure shown.

What all share (assay type): functional
The subject of assay [1] is Pyricularia oryzae. As to the kind of experiment: Fungicidal activity against Magnaporthe oryzae by agar dilution method.
For assay [2], the system named is Pyricularia oryzae. Kind of assay: Fungicidal activity against Magnaporthe oryzae in rice seedlings assessed as control of rice blast at 250 ppm by curative foliar treatment.
Assay [3] relates to Nakataea oryzae. Kind of assay: Fungicidal activity against Magnaporthe salvinii by agar dilution method. A general note: Agar dilution tests growth on a series of plates holding different concentrations.
The test system of assay [4] is Podosphaera fuliginea. As to the kind of experiment: Fungicidal activity against Podosphaera fuliginea in cucumber assessed as control of cucumber powdery mildew at 62.5 ppm measured after 10 days of inoculation.
For assay [5], the system named is Podosphaera fuliginea. As to the kind of experiment: Fungicidal activity against Podosphaera fuliginea in cucumber assessed as control of cucumber powdery mildew at 125 ppm measured after 10 days of inoculation.
For assay [6], the system named is Podosphaera fuliginea. As to the kind of experiment: Fungicidal activity against Podosphaera fuliginea in cucumber assessed as control of cucumber powdery mildew at 62.5 ppm measured after 7 days of inoculation.
Assay [7] deals with Podosphaera fuliginea. As to the kind of experiment: Fungicidal activity against Podosphaera fuliginea in cucumber assessed as control of cucumber powdery mildew at 125 ppm measured after 7 days of inoculation.
In assay [8] the test system is Pyricularia oryzae. Kind of assay: Fungicidal activity against Magnaporthe oryzae in rice seedlings assessed as control of rice blast at 500 ppm by preventive foliar treatment.
Assay [9] deals with Pyricularia oryzae. Kind of assay: Fungicidal activity against Magnaporthe oryzae in rice seedlings assessed as control of rice blast at 500 ppm by curative foliar treatment.

Usually MIC stands for the least concentration at which growth counts as inhibited. Read a high MIC as weaker potency. In turn, `Cc1cc(O)nc(-n2nc(C)cc2C)n1` gave an MIC in assay [1] of 12.5 µg/mL (≈ 61.2 µM). The Activity in assay [2] amounted to 69%.

With `Cc1cc(C)n(-c2nc(C)c(C)c(O)n2)n1`, the MIC in assay [1] turned out to be 12.5 µg/mL (≈ 57.3 µM); in assay [3], 100 µg/mL (≈ 458 µM). In addition, the Activity in assay [2] was 0%.

For the compound `CCCCc1c(C)nc(-n2nc(C)cc2C)nc1O`, the Activity in [4] is 100%; in assay [5], 100%; in [6] it was 100%; in assay [7], 100%; in [8], 48%; in assay [9], 99%. Also, the MIC in [1] was found to be 6.25 µg/mL (≈ 24 µM); in [3], 0.1 µg/mL (≈ 0.384 µM).

For the compound `Cc1cc(C)n(-c2nc(C)c(CC(C)C)c(O)n2)n1`, the Activity in [4] is given as 99.4%; in assay [5], 100%; in assay [6], 100%; in [7], 100%; in assay [8] it was 93%; in assay [9], 98%. Further, the results for the MIC in assay [1] and in assay [3] were 6.25 µg/mL (≈ 24 µM) and 0.78 µg/mL (≈ 3 µM), respectively.

Take `CCCCCc1c(C)nc(-n2nc(C)cc2C)nc1O`: the Activity in assay [4] is 100%; in assay [5] it was 100%; in assay [6] it was 100%; in assay [7] it was 100%; in assay [8], 81%; in assay [9], 94%. The MIC in [1] came to 6.25 µg/mL (≈ 22.8 µM); in [3] it was 0.2 µg/mL (≈ 0.729 µM).

For `CCCCCCc1c(C)nc(-n2nc(C)cc2C)nc1O`, the Activity stood at 98.4% in assay [4]; 100% in assay [5]; 99.4% in [6]; 100% in assay [7]; 81% in [8]; 89% in assay [9]. The MIC in [1] and in assay [3] was 6.25 µg/mL (≈ 21.7 µM) in each case.

As for `Cc1cc(C)n(-c2nc(O)c3c(n2)CCC3)n1`, the MIC in assay [1] and in assay [3] was 6.25 µg/mL (≈ 27.1 µM) each time. Besides, the Activity in assay [2] was found to be 15%; in assay [8], 13%.

In assay [1], `Cc1cc(C)n(-c2nc(O)c3c(n2)CCCC3)n1` had an MIC of 3.12 µg/mL (≈ 12.8 µM). Moreover, the Activity in assay [2] and in assay [8] was 0% in each case.

As to `C=CCc1c(C)nn(-c2nc(C)cc(C)n2)c1C`, the MIC is 100 µg/mL (≈ 413 µM) in assay [1] and 25 µg/mL (≈ 103 µM) in assay [3]. Also, the Activity stood at 85% in assay [8] and 99% in [9].

On to `Cc1cc(C)n(-c2nc(C)c(C)c(C)n2)n1`, for which the MIC in assay [1] amounted to 50 µg/mL (≈ 231 µM); in [3], 100 µg/mL (≈ 462 µM). Further, the figures for the Activity in assay [8] and in [9] were 65% and 78%, respectively.

As for `Cc1cc(C)nc(-n2nc(C)cc2C)n1`, the MIC in [1] was over 100 µg/mL; in [3] it was 100 µg/mL (≈ 494 µM). In addition, the figures for the Activity in [8] and in [9] were 99% and 100%, respectively.

Take `Cc1ccnc(-n2nc(C)cc2C)n1`: the MIC in [1] and in [3] was over 100 µg/mL each time. The results for the Activity in assay [8] and in assay [9] were 78% and 96%, respectively.

Take `Cc1cc(C)n(-c2ncccn2)n1`: the MIC in assay [1] and in assay [3] was over 100 µg/mL throughout. Further, the Activity in assay [8] is listed as 78%; in [9] it was 73%.

For `Cc1cc(C)n(-c2nc(C)c3ccccc3n2)n1`, the MIC in assay [1] was 25 µg/mL (≈ 105 µM); in assay [3] it was 6.25 µg/mL (≈ 26.2 µM). Further, the Activity in [8] amounted to 71%; in assay [9], 98%.

Consider `Cc1cc(C)n(-c2ncc3ccccc3n2)n1`, for which the MIC in assay [1] and in assay [3] was 25 µg/mL (≈ 111 µM) in each case. In addition, the Activity in assay [8] stood at 84%; in assay [9], 99%.

`CCc1cc(C)n(-c2nc(C)cc(C)n2)n1`: the MIC in [1] and in assay [3] was 50 µg/mL (≈ 231 µM) in each case. The Activity in [8] is listed as 31%; in assay [9] it was 100%.

Turning to `CCc1cc(C)n(-c2nccc(C)n2)n1`, the MIC in [1] was 25 µg/mL (≈ 124 µM); in [3] it was 50 µg/mL (≈ 247 µM). Also, the Activity is on record as 84% in [8] and 98% in assay [9].

With `CCc1cc(C)n(-c2ncccn2)n1`, the MIC in [1] and in assay [3] was over 100 µg/mL each time. The Activity turned out to be 74% in assay [8] and 93% in assay [9].

Take `CCc1cc(CC)n(-c2nc(C)cc(C)n2)n1`: the MIC in [1] and in assay [3] was 25 µg/mL (≈ 109 µM) in each case. In addition, the figures for the Activity in assay [8] and in assay [9] were 40% and 100%, respectively.

Regarding `CCc1cc(CC)n(-c2nccc(C)n2)n1`, the MIC in assay [1] and in [3] was 25 µg/mL (≈ 116 µM) each time. The Activity is given as 59% in [8] and 100% in [9].

Take `CCc1cc(CC)n(-c2ncccn2)n1`: the MIC was 100 µg/mL (≈ 494 µM) in assay [1] and over 100 µg/mL in [3]. For the same compound, the results for the Activity in assay [8] and in [9] were 90% and 100%, respectively.

`CCCc1cc(CCC)n(-c2nc(C)cc(C)n2)n1`: the values for the MIC in assay [1] and in assay [3] were 12.5 µg/mL (≈ 48.4 µM) and 6.25 µg/mL (≈ 24.2 µM), respectively. Besides, the Activity in assay [8] amounted to 40%; in [9], 100%.

Turning to `Cc1cc(C)nc(-n2nc(C(C)C)cc2C(C)C)n1`, the minimal inhibitory concentration (MIC) in assay [1] and in assay [3] was 6.25 µg/mL (≈ 24.2 µM) in each case. For the same compound, the Activity is reported as 31% in assay [8] and 100% in assay [9].

As for `Cc1cc(C)nc(-n2ncc3ccccc32)n1`, the results for the MIC in assay [1] and in [3] were 50 µg/mL (≈ 223 µM) and 25 µg/mL (≈ 111 µM), respectively. Also, the values for the Activity in assay [8] and in assay [9] were 31% and 96%, respectively.

Take `Cc1cc(C)nc(-n2nc3c(c2C)CCCC3)n1`: the MIC in assay [1] and in assay [3] was 12.5 µg/mL (≈ 51.6 µM) each time. The Activity in [8] worked out at 84%; in [9] it was 99%.

Regarding `Cc1nc(-n2nc(C)c(C)c2C)nc(C)c1C`, the MIC in assay [1] and in [3] was 50 µg/mL (≈ 217 µM) throughout. Also, the values for the Activity in assay [8] and in assay [9] were 81% and 99%, respectively.

Regarding `Cc1cc(C)nc(-n2nc(C)c(C)c2C)n1`, the MIC in assay [1] worked out at 100 µg/mL (≈ 462 µM); in [3], 50 µg/mL (≈ 231 µM). Also, the Activity amounted to 81% in assay [8] and 99% in [9].

On to `Cc1ccnc(-n2nc(C)c(C)c2C)n1`, for which the MIC in assay [1] and in assay [3] was 50 µg/mL (≈ 247 µM) throughout. In addition, the Activity is recorded as 63% in assay [8] and 100% in [9].

For `CCc1c(C)nn(-c2nc(C)cc(C)n2)c1C`, the MIC in assay [1] and in assay [3] was 50 µg/mL (≈ 217 µM) in each case. In addition, the Activity in assay [8] and in assay [9] was 100% throughout.

As to `CCCc1c(C)nn(-c2nc(C)cc(C)n2)c1C`, the MIC in assay [1] came out at 25 µg/mL (≈ 102 µM); in assay [3], 12.5 µg/mL (≈ 51.2 µM). The Activity is reported as 90% in assay [8] and 98% in [9].

On to `Cc1cc(C)nc(-n2nc(C)c(CC(C)C)c2C)n1`, for which the MIC in assay [1] and in [3] was 6.25 µg/mL (≈ 24.2 µM) throughout. Also, the Activity in assay [8] was 90%; in [9], 100%.

With `CCCCc1c(C)nc(N(C)C)nc1O` [DIMETHIRIMOL], the Activity in [4], in [5], in assay [6] and in [7] was 100% each time.

For the compound `CCCCc1c(C)nc(NCC)[nH]c1=O` [ETHIRIMOL], the Activity in [4], in assay [5], in assay [6] and in assay [7] was 100% throughout.
